# Reference: US20230085307A1, “PYRIDAZINONE COMPOUND AND HERBICIDE” (NISSAN CHEMICAL CORPORATION, priority 2019, published 2023)
# Legend:
# [1] = tested on: late watergrass; assay: Test Example 1: herbicidal activity, application before weed generation under submerged conditions (Table 16, symbol A); assay type: in vivo, late watergrass (Echinochloa oryzicola); conditions: 320 g/ha applied herbicide
# Procedure, shortened: (§1)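 Emulsion formulation, water-diluted to set dose, was put onto the flooded surface (4 cm depth, alluvial soil) the same day weeds were sown and 2.5-leaf rice transplanted. After 3 weeks at 25-30 °C under glass, each species was rated 0 (≤5% kill) to 5 (≥90% kill).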
# [2] = tested on: Japanese bulrush; assay: Test Example 1: herbicidal activity, application before weed generation under submerged conditions (Table 16, symbol B); assay type: in vivo, Japanese bulrush (Schoenoplectus juncoides); conditions: 320 g/ha applied herbicide
# Procedure, shortened: as §1
# [3] = tested on: oval-leafed pondweed; assay: Test Example 1: herbicidal activity, application before weed generation under submerged conditions (Table 16, symbol C); assay type: in vivo, oval-leafed pondweed (Monochoria vaginalis); conditions: 320 g/ha applied herbicide
# Procedure, shortened: as §1
# [4] = tested on: barnyard grass; assay: Test Example 3: herbicidal effect by foliage application, Wagner pot (Table 18, symbol H); assay type: in vivo, barnyard grass (Echinochloa crus-galli); conditions: 320 g/ha
# Procedure, shortened: (§2)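 Plants were sown in alluvial soil held under 0.1–0.5 cm standing water and grown 14 days in a greenhouse at 25–30 °C. An emulsifiable formulation, water-diluted to the set dose, was then sprayed onto the foliage, and effects were scored three weeks later using previously defined criteria.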
# [5] = tested on: Chinese sprangletop; assay: Test Example 3: herbicidal effect by foliage application, Wagner pot (Table 18, symbol D); assay type: in vivo, chinese sprangletop (Leptochloa chinensis); conditions: 320 g/ha
# Procedure, shortened: as §2
# [6] = tested on: rice flat sedge; assay: Test Example 3: herbicidal effect by foliage application, Wagner pot (Table 18, symbol E); assay type: in vivo, rice flat sedge (Cyperus iria); conditions: 320 g/ha
# Procedure, shortened: as §2
# [7] = tested on: southern crabgrass; assay: Test Example 4: herbicidal effect by soil treatment (Table 19, symbol F); assay type: in vivo, southern crabgrass (Digitaria ciliaris)
# Procedure, shortened: (§3)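 Step 1: sow seeds in sterilized diluvial soil, cover ~1.5 cm. Step 2: spray diluted emulsion onto soil surface at predetermined rate. Step 3: greenhouse, 25–30° C, three weeks. Step 4: grade effect on each plant by earlier criteria.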
# [8] = tested on: green foxtail; assay: Test Example 4: herbicidal effect by soil treatment (Table 19, symbol G); assay type: in vivo, green foxtail (Setaria viridis)
# Procedure, shortened: as §3
# [9] = tested on: barnyard grass; assay: Test Example 4: herbicidal effect by soil treatment (Table 19, symbol H); assay type: in vivo, barnyard grass (Echinochloa crus-galli)
# Procedure, shortened: as §3
# [10] = tested on: wild oat; assay: Test Example 4: herbicidal effect by soil treatment (Table 19, symbol I); assay type: in vivo, wild oat (Avena fatua)
# Procedure, shortened: as §3
# [11] = tested on: blackgrass; assay: Test Example 4: herbicidal effect by soil treatment (Table 19, symbol J); assay type: in vivo, blackgrass (Alopecurus myosuroides)
# Procedure, shortened: as §3
# [12] = tested on: Italian ryegrass; assay: Test Example 4: herbicidal effect by soil treatment (Table 19, symbol K); assay type: in vivo, Italian ryegrass (Lolium multiflorum)
# Procedure, shortened: as §3
# [13] = tested on: windgrass; assay: Test Example 4: herbicidal effect by soil treatment (Table 19, symbol L); assay type: in vivo, windgrass (Apera spica-venti)
# Procedure, shortened: as §3
# [14] = tested on: velvetleaf; assay: Test Example 4: herbicidal effect by soil treatment (Table 19, symbol M); assay type: in vivo, velvetleaf (Abutilon theophrasti)
# Procedure, shortened: as §3
# [15] = tested on: redroot pigweed; assay: Test Example 4: herbicidal effect by soil treatment (Table 19, symbol N); assay type: in vivo, redroot pigweed (Amaranthus retroflexus)
# Procedure, shortened: as §3
# [16] = tested on: lambsquarters; assay: Test Example 4: herbicidal effect by soil treatment (Table 19, symbol O); assay type: in vivo, lambsquarters (Chenopodium album)
# Procedure, shortened: as §3
# [17] = tested on: chickweed; assay: Test Example 4: herbicidal effect by soil treatment (Table 19, symbol P); assay type: in vivo, common chickweed (Stellaria media)
# Procedure, shortened: as §3
# [18] = tested on: persian speedwell; assay: Test Example 4: herbicidal effect by soil treatment (Table 19, symbol R); assay type: in vivo, Persian speedwell (Veronica persica)
# Procedure, shortened: as §3
# [19] = tested on: southern crabgrass; assay: Test Example 5: herbicidal effect by foliage application, plastic box (Table 20, symbol F); assay type: in vivo, southern crabgrass (Digitaria ciliaris); conditions: foliage application
# Procedure, shortened: (§4)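 Foliar spray test: emulsion formulation diluted in water to a set application rate, sprayed onto 14-day-old plants raised in diluvial soil at 25° C to 30° C under glass. Both herbicidal effect and crop effect rated visually three weeks later.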
# [20] = tested on: green foxtail; assay: Test Example 5: herbicidal effect by foliage application, plastic box (Table 20, symbol G); assay type: in vivo, green foxtail (Setaria viridis); conditions: foliage application
# Procedure, shortened: as §4
# [21] = tested on: barnyard grass; assay: Test Example 5: herbicidal effect by foliage application, plastic box (Table 20, symbol H); assay type: in vivo, barnyard grass (Echinochloa crus-galli); conditions: foliage application
# Procedure, shortened: as §4
# [22] = tested on: wild oat; assay: Test Example 5: herbicidal effect by foliage application, plastic box (Table 20, symbol I); assay type: in vivo, wild oat (Avena fatua); conditions: foliage application
# Procedure, shortened: as §4
# [23] = tested on: blackgrass; assay: Test Example 5: herbicidal effect by foliage application, plastic box (Table 20, symbol J); assay type: in vivo, blackgrass (Alopecurus myosuroides); conditions: foliage application
# Procedure, shortened: as §4
# [24] = tested on: Italian ryegrass; assay: Test Example 5: herbicidal effect by foliage application, plastic box (Table 20, symbol K); assay type: in vivo, Italian ryegrass (Lolium multiflorum); conditions: foliage application
# Procedure, shortened: as §4
# [25] = tested on: windgrass; assay: Test Example 5: herbicidal effect by foliage application, plastic box (Table 20, symbol L); assay type: in vivo, windgrass (Apera spica-venti); conditions: foliage application
# Procedure, shortened: as §4
# [26] = tested on: velvetleaf; assay: Test Example 5: herbicidal effect by foliage application, plastic box (Table 20, symbol M); assay type: in vivo, velvetleaf (Abutilon theophrasti); conditions: foliage application
# Procedure, shortened: as §4
# [27] = tested on: redroot pigweed; assay: Test Example 5: herbicidal effect by foliage application, plastic box (Table 20, symbol N); assay type: in vivo, redroot pigweed (Amaranthus retroflexus); conditions: foliage application
# Procedure, shortened: as §4
# [28] = tested on: lambsquarters; assay: Test Example 5: herbicidal effect by foliage application, plastic box (Table 20, symbol O); assay type: in vivo, lambsquarters (Chenopodium album); conditions: foliage application
# Procedure, shortened: as §4
# [29] = tested on: chickweed; assay: Test Example 5: herbicidal effect by foliage application, plastic box (Table 20, symbol P); assay type: in vivo, common chickweed (Stellaria media); conditions: foliage application
# Procedure, shortened: as §4
# [30] = tested on: persian speedwell; assay: Test Example 5: herbicidal effect by foliage application, plastic box (Table 20, symbol R); assay type: in vivo, Persian speedwell (Veronica persica); conditions: foliage application
# Procedure, shortened: as §4
# [31] = AAH 320 g/ha, three weeks after application
# [32] = 320 g/ha, evaluated three weeks after application
compound,measurement,setting,value
COCOc1c(C)nn(C)c(=O)c1-c1c(-c2ccc(OCc3ccccc3)cc2)sc2ccccc12 [1-135],Herbicidal effect on A: late watergrass (grade 0-5),[1],4 (Herbicidal rate of 70% or more and less than 90%)
same,Herbicidal effect on B: Japanese bulrush (grade 0-5),[2],3 (Herbicidal rate of 40% or more and less than 70%)
same,Herbicidal effect on C: oval-leafed pondweed (grade 0-5),[3],3 (Herbicidal rate of 40% or more and less than 70%)
same,"herbicidal effect on H (barnyard grass), rating 0-5",[4],2 (Herbicidal rate of 20% or more and less than 40%)
same,"herbicidal effect on D (Chinese sprangletop), rating 0-5",[5],3 (Herbicidal rate of 40% or more and less than 70%)
same,"herbicidal effect on E (rice flat sedge), rating 0-5",[6],3 (Herbicidal rate of 40% or more and less than 70%)
same,"F: southern crabgrass, herbicidal effect rating",[7]; AAH 320 g/ha,2 (Herbicidal rate of 20% or more and less than 40%)
same,"G: green foxtail, herbicidal effect rating",[8]; AAH 320 g/ha,0 (Herbicidal rate of 5% or less (almost no effect))
same,"H: barnyard grass, herbicidal effect rating",[9]; AAH 320 g/ha,0 (Herbicidal rate of 5% or less (almost no effect))
same,"I: wild oat, herbicidal effect rating",[10]; AAH 320 g/ha,0 (Herbicidal rate of 5% or less (almost no effect))
same,"J: blackgrass, herbicidal effect rating",[11]; AAH 320 g/ha,0 (Herbicidal rate of 5% or less (almost no effect))
same,"K: Italian ryegrass, herbicidal effect rating",[12]; AAH 320 g/ha,0 (Herbicidal rate of 5% or less (almost no effect))
same,"L: windgrass, herbicidal effect rating",[13]; AAH 320 g/ha,0 (Herbicidal rate of 5% or less (almost no effect))
same,"M: velvetleaf, herbicidal effect rating",[14]; AAH 320 g/ha,0 (Herbicidal rate of 5% or less (almost no effect))
same,"N: redroot pigweed, herbicidal effect rating",[15]; AAH 320 g/ha,0 (Herbicidal rate of 5% or less (almost no effect))
same,"O: lambsquarters, herbicidal effect rating",[16]; AAH 320 g/ha,0 (Herbicidal rate of 5% or less (almost no effect))
same,"P: chickweed, herbicidal effect rating",[17]; AAH 320 g/ha,0 (Herbicidal rate of 5% or less (almost no effect))
same,"R: persian speedwell, herbicidal effect rating",[18]; AAH 320 g/ha,3 (Herbicidal rate of 40% or more and less than 70%)
same,"F: southern crabgrass, herbicidal effect",[19]; [31],0 (Herbicidal rate of 5% or less (almost no effect))
same,"G: green foxtail, herbicidal effect",[20]; [31],4 (Herbicidal rate of 70% or more and less than 90%)
same,"H: barnyard grass, herbicidal effect",[21]; [31],1 (Herbicidal rate of 5% or more and less than 20%)
same,"I: wild oat, herbicidal effect",[22]; [31],0 (Herbicidal rate of 5% or less (almost no effect))
same,"J: blackgrass, herbicidal effect",[23]; [31],0 (Herbicidal rate of 5% or less (almost no effect))
same,"K: Italian ryegrass, herbicidal effect",[24]; [31],0 (Herbicidal rate of 5% or less (almost no effect))
same,"L: windgrass, herbicidal effect",[25]; [31],0 (Herbicidal rate of 5% or less (almost no effect))
same,"M: velvetleaf, herbicidal effect",[26]; [31],2 (Herbicidal rate of 20% or more and less than 40%)
same,"N: redroot pigweed, herbicidal effect",[27]; [31],5 (Herbicidal rate of 90% or more (almost completely withered))
same,"O: lambsquarters, herbicidal effect",[28]; [31],5 (Herbicidal rate of 90% or more (almost completely withered))
same,"P: chickweed, herbicidal effect",[29]; [31],5 (Herbicidal rate of 90% or more (almost completely withered))
same,"R: persian speedwell, herbicidal effect",[30]; [31],4 (Herbicidal rate of 70% or more and less than 90%)
CSCCOc1ccc(-c2sc3ccc(F)cc3c2-c2c(O)c(C)nn(C)c2=O)cc1 [2-058],Herbicidal effect on A: late watergrass (grade 0-5),[1],0 (Herbicidal rate of 5% or less (almost no effect))
same,Herbicidal effect on B: Japanese bulrush (grade 0-5),[2],2 (Herbicidal rate of 20% or more and less than 40%)
same,Herbicidal effect on C: oval-leafed pondweed (grade 0-5),[3],0 (Herbicidal rate of 5% or less (almost no effect))
same,"herbicidal effect on H (barnyard grass), rating 0-5",[4],5 (Herbicidal rate of 90% or more (almost completely withered))
same,"herbicidal effect on D (Chinese sprangletop), rating 0-5",[5],5 (Herbicidal rate of 90% or more (almost completely withered))
same,"herbicidal effect on E (rice flat sedge), rating 0-5",[6],5 (Herbicidal rate of 90% or more (almost completely withered))
same,"herbicidal effect rating, F: southern crabgrass",[7]; 320 g/ha,5 (Herbicidal rate of 90% or more (almost completely withered))
same,"herbicidal effect rating, G: green foxtail",[8]; 320 g/ha,4 (Herbicidal rate of 70% or more and less than 90%)
same,"herbicidal effect rating, H: barnyard grass",[9]; 320 g/ha,1 (Herbicidal rate of 5% or more and less than 20%)
same,"herbicidal effect rating, I: wild oat",[10]; 320 g/ha,0 (Herbicidal rate of 5% or less (almost no effect))
same,"herbicidal effect rating, J: blackgrass",[11]; 320 g/ha,5 (Herbicidal rate of 90% or more (almost completely withered))
same,"herbicidal effect rating, K: Italian ryegrass",[12]; 320 g/ha,4 (Herbicidal rate of 70% or more and less than 90%)
same,"herbicidal effect rating, L: windgrass",[13]; 320 g/ha,4 (Herbicidal rate of 70% or more and less than 90%)
same,"herbicidal effect rating, M: velvetleaf",[14]; 320 g/ha,3 (Herbicidal rate of 40% or more and less than 70%)
same,"herbicidal effect rating, N: redroot pigweed",[15]; 320 g/ha,5 (Herbicidal rate of 90% or more (almost completely withered))
same,"herbicidal effect rating, O: lambsquarters",[16]; 320 g/ha,5 (Herbicidal rate of 90% or more (almost completely withered))
same,"herbicidal effect rating, P: chickweed",[17]; 320 g/ha,3 (Herbicidal rate of 40% or more and less than 70%)
same,"herbicidal effect rating, R: persian speedwell",[18]; 320 g/ha,4 (Herbicidal rate of 70% or more and less than 90%)
same,herbicidal effect on F: southern crabgrass,[19]; [32],5 (Herbicidal rate of 90% or more (almost completely withered))
same,herbicidal effect on G: green foxtail,[20]; [32],5 (Herbicidal rate of 90% or more (almost completely withered))
same,herbicidal effect on H: barnyard grass,[21]; [32],5 (Herbicidal rate of 90% or more (almost completely withered))
same,herbicidal effect on I: wild oat,[22]; [32],5 (Herbicidal rate of 90% or more (almost completely withered))
same,herbicidal effect on J: blackgrass,[23]; [32],5 (Herbicidal rate of 90% or more (almost completely withered))
same,herbicidal effect on K: Italian ryegrass,[24]; [32],5 (Herbicidal rate of 90% or more (almost completely withered))
same,herbicidal effect on L: windgrass,[25]; [32],5 (Herbicidal rate of 90% or more (almost completely withered))
same,herbicidal effect on M: velvetleaf,[26]; [32],5 (Herbicidal rate of 90% or more (almost completely withered))
same,herbicidal effect on N: redroot pigweed,[27]; [32],5 (Herbicidal rate of 90% or more (almost completely withered))
same,herbicidal effect on O: lambsquarters,[28]; [32],5 (Herbicidal rate of 90% or more (almost completely withered))
same,herbicidal effect on P: chickweed,[29]; [32],5 (Herbicidal rate of 90% or more (almost completely withered))
same,herbicidal effect on R: persian speedwell,[30]; [32],5 (Herbicidal rate of 90% or more (almost completely withered))
